Values quoted from earlier work as cited in US20210386111A1, “AEROSOLISABLE FORMULATION” (NICOVENTURES TRADING LIMITED, priority 2018, published 2021).

**Q.** For 2-hydroxy-propyl-β-cyclodextrin, which “solubility in water compared to base cyclodextrins such as β-cyclodextrin” value is on record?
**A.** increased solubility in water
